Assay results: publication PMC10655391, “Inhibition of Hsp110-STAT3 interaction in endothelial cells alleviates vascular remodeling in hypoxic pulmonary arterial Hypertension model” (Respiratory Research, 2023)

Target: T1, Hsp110 (Homo sapiens, UniProt Q92598)
T1 construct: gene HSPH1; purified recombinant human Hsp110 (His6-SUMO tag cleaved)
Assay: luciferase anti-aggregation assay with purified Hsp110 at […] (single concentration)
Type: biochemical
Settings: read-out: % reduction of anti-aggregating activity at 100 μM

T1 sequence (Q92598 whole entry): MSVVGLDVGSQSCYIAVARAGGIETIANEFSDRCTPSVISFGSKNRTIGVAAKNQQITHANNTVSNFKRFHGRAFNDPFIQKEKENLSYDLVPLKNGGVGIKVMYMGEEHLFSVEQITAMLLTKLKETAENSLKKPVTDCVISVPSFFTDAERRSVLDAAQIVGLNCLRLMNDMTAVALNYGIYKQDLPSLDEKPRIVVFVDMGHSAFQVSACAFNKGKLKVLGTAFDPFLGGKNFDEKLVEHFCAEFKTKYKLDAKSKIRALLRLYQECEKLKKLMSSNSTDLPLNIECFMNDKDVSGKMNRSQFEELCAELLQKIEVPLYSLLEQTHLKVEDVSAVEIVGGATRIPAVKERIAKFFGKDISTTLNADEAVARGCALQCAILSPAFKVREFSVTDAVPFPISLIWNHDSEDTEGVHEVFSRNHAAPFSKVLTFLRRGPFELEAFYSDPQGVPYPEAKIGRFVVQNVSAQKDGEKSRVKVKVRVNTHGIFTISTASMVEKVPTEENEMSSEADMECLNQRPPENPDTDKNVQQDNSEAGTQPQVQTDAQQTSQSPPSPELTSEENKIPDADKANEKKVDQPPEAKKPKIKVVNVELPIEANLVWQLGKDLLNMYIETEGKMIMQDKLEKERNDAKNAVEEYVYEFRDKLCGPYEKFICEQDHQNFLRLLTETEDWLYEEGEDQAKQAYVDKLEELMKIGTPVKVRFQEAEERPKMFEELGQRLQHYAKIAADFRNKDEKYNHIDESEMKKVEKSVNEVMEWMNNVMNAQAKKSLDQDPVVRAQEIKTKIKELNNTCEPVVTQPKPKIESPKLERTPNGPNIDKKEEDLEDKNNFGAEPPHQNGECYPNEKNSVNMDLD

SMILES | inhibition at 100 µM [%]
Cc1nn(-c2ccccc2)c2nc(OCc3cnc(Cl)s3)c(-c3nc(N)cc(N)n3)cc12 [compound 8] | > 50
Cc1ccccc1COc1nc2c(cc1-c1nc(N)cc(N)n1)c(C)nn2-c1ccccc1 [compound 5] | > 50
